Test results published in the NIST ThermoML archive (doi:10.1021/acs.jced.6b00695).
± gives the expanded uncertainty stated by the source. One block for each compound: values may come before it.

Assay: mn = molality of the nth substance listed, in mol/kg
Settings: for surface tension liquid-gas: Capillary rise; for viscosity / speed of sound / mass density: 100 kPa, Liquid; for viscosity: Capillary tube (Ostwald / Ubbelohde) method; for speed of sound: Sing-around technique in a fixed-path interferometer; for mass density: Vibrating tube method

Compound: OC[C@H]1O[C@@](CO)(O[C@H]2O[C@H](CO)[C@@H](O)[C@H](O)[C@H]2O)[C@@H](O)[C@@H]1O [D-sucrose] + O
surface tension liquid-gas (298.15 K, m1 = 1.27): 42.79 ± 0.7 mN/m
viscosity (298.15 K, m1 = 1.27): 2.727 ± 0.018 mPa·s
speed of sound (298.15 K, m1 = 1.27): 1607.8 ± 1.1 m/s
mass density (298.15 K, m1 = 1.27): 1127.29 ± 0.25 kg/m3
surface tension liquid-gas (303.15 K, m1 = 1.27): 42.13 ± 0.7 mN/m
viscosity (303.15 K, m1 = 1.27): 2.386 ± 0.016 mPa·s
speed of sound (303.15 K, m1 = 1.27): 1615.4 ± 1.1 m/s
mass density (303.15 K, m1 = 1.27): 1125.29 ± 0.25 kg/m3
surface tension liquid-gas (308.15 K, m1 = 1.27): 40.87 ± 0.7 mN/m
viscosity (308.15 K, m1 = 1.27): 2.085 ± 0.014 mPa·s
speed of sound (308.15 K, m1 = 1.27): 1621.8 ± 1.1 m/s
mass density (308.15 K, m1 = 1.27): 1123.11 ± 0.25 kg/m3

Compound: O=C(O)CC(O)(CC(=O)O)C(=O)O [citric acid] + O
surface tension liquid-gas (298.15 K, m1 = 0.005): 71.6 ± 0.69 mN/m
viscosity (298.15 K, m1 = 0.005): 0.9011 ± 0.0069 mPa·s
speed of sound (298.15 K, m1 = 0.005): 1494.6 ± 0.86 m/s
mass density (298.15 K, m1 = 0.005): 997.455 ± 0.05 kg/m3
surface tension liquid-gas (303.15 K, m1 = 0.005): 70.84 ± 0.69 mN/m
viscosity (303.15 K, m1 = 0.005): 0.8009 ± 0.0066 mPa·s
speed of sound (303.15 K, m1 = 0.005): 1504.7 ± 0.86 m/s
mass density (303.15 K, m1 = 0.005): 996.059 ± 0.045 kg/m3
surface tension liquid-gas (308.15 K, m1 = 0.005): 70.06 ± 0.69 mN/m
viscosity (308.15 K, m1 = 0.005): 0.7225 ± 0.0063 mPa·s
speed of sound (308.15 K, m1 = 0.005): 1516.2 ± 0.87 m/s
mass density (308.15 K, m1 = 0.005): 994.427 ± 0.051 kg/m3

Compound: [Cl][Dy]([Cl])[Cl] [dysprosium(III) chloride] + O
mass density (298.15 K, m1 = 0.005): 998.006 ± 0.05 kg/m3

Other lines, results leading:

mass density (298.15 K, m1 = 0.005): 998.051 ± 0.05 kg/m3
Compound: [Cl][Er]([Cl])[Cl] [erbium trichloride] + O

mass density (298.15 K, m1 = 0.005): 998.121 ± 0.05 kg/m3
Compound: [Cl][Yb]([Cl])[Cl] [ytterbium trichloride] + O
